Each structure is given as a SMILES string. “And” between values parts separate entries of the source, which are not always exact repeats. Equal values may be shown once.

The test system of data set [1] is C57Bl/6 male mice. Nature of the data set: Lingual application: pancreato-bile secretion and release of gut peptides. The class given is in vivo. The following applies: tongue application 100 μmol/L; at 30 and 60 minutes.
For data set [2], the system named is HepG2 cells. Nature of the data set: Micronucleus analysis.
The next data set can be described thus: Cytotoxicity evaluation. The following applies: human, Cytotoxicity (%).
Data set [3] has as its system HepG2 cells. Briefly: Cytotoxicity evaluation.
For the next data set, the system named is human fungiform TBC. Nature of the data set: Ca2+ signaling in human fungiform TBC. The class given is cell-based.
The test system of a further data set is mouse fungiform TBC. Nature of the data set: Ca2+ signaling in mouse fungiform TBC. The class given is cell-based. The note with it: LA at 20 μmol/L.
The test system of data set [4] is chorda tympani (CT) nerve. Nature of the data set: Chorda tympani. The class given is in vivo. The following applies: lingual application in mice; 1, 2, and 4 mmol/L; normalized to NH4Cl 100 mmol/L.
Data set [5] relates to C57Bl/6 male mice. Nature of the data set: Two-bottle preference and licking tests. The class given is in vivo. The note with it: 75 μmol/L in 0.3% xanthan gum, 12 hours.
The next data set relates to C57BL/6J male mice. Nature of the data set: Diet-induced obesity. The class given is in vivo.
Data set [6] deals with T1, human estrogen receptor alpha (hERα) (Homo sapiens, UniProt P03372).
T1 sequence (P03372 1-595): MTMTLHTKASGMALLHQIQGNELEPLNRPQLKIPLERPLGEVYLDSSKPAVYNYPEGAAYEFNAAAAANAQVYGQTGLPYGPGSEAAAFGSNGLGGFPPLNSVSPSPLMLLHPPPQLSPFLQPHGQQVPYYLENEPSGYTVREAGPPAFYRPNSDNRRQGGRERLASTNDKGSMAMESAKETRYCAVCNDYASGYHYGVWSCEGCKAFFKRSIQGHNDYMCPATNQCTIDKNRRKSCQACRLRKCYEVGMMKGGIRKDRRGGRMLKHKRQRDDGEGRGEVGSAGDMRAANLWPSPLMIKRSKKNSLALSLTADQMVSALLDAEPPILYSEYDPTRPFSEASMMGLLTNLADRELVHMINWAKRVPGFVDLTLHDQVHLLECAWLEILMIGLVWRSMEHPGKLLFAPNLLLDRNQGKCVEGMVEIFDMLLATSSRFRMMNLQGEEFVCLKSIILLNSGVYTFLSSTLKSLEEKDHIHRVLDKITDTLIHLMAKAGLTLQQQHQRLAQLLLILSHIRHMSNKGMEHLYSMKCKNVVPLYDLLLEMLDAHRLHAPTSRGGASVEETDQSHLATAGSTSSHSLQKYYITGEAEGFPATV
Nature of the data set: Estrogen receptor transcriptional activation and inhibition assays. The class given is cell-based.

The subject of data set [7] is human androgen receptor (hAR). Nature of the data set: Androgen receptor transcriptional activation and inhibition assays. The class given is cell-based.
The subject of another data set is female Wistar rats. Nature of the data set: Toxicity / median lethal dose test, OECD guidelines 425. The class given is in vivo.
A short description of data set [8]: Pharmacokinetics and detection in blood by LC-MS. The class given is in vivo, mice. The note with it: mice.
Data set [9] relates to S typhimurium tester strains TA98, TA100, TA1535, and TA1537 and E coli tester strain WP2uvrA(pKM101). The following applies: all doses with and without S9.
Where [10] appears, read: extended treatment in the absence of S9 mix, 0.0025 μg/mL (Table 13).
Setting [11] is: extended treatment in the absence of S9 mix, 0.025 μg/mL (Table 14).
Setting [12] is: extended treatment in the absence of S9 mix, 0.0025 μg/mL (Table 5).
[13] abbreviates: extended treatment in the absence of S9 mix, 0.025 μg/mL (Table 8).
Where [14] appears, read: rats, single oral 2000 mg/kg, means ± SEM (n = 5).
[15] abbreviates: short treatment in the absence of S9 mix, 2.5 mmol/L.
The mark [16] stands for this setting: short treatment in the absence of S9 mix, 5 mmol/L.
Where [17] appears, read: short treatment in the absence of S9 mix, 10 mmol/L.
[18] abbreviates: short treatment in the presence of S9 mix, 2.5 mmol/L.
[19] abbreviates: short treatment in the presence of S9 mix, 5 mmol/L.
Setting [20] is: short treatment in the presence of S9 mix, 10 mmol/L.
Where [21] appears, read: extended treatment in the absence of S9 mix.
The mark [22] stands for this setting: short treatment in the absence of S9 mix.
Where [23] appears, read: short treatment in the presence of S9 mix.
[24] abbreviates: extended treatment in the absence of S9 mix, 2.5 mmol/L.
Where [25] appears, read: extended treatment in the absence of S9 mix, 5 mmol/L.
Where [26] appears, read: extended treatment in the absence of S9 mix, 10 mmol/L.
Setting [27] is: short treatment in the presence of S9 mix, 5 μg/mL (Table 11).
Where [28] appears, read: short treatment in the presence of S9 mix, 10 μg/mL (Table 12).
The mark [29] stands for this setting: short treatment in the presence of S9 mix, 5 μg/mL (Table 4).
[30] abbreviates: short treatment in the presence of S9 mix, 10 μg/mL (Table 7).

Turning to `CCCCC/C=C\C/C=C\CCCCCCCC(=O)O` [LA, linoleic acid, reference compound], the “release of cholecystokinin (CCK) into blood” value in the data set with C57Bl/6 male mice [1] was “better inducer than NKS-3”.

Consider `CC[C@]1(O)C[C@@H]2CN(CCc3c([nH]c4ccccc34)[C@@](C(=O)OC)(c3cc4c(cc3OC)N(C)[C@H]3[C@@](O)(C(=O)OC)[C@H](OC(C)=O)[C@]5(CC)C=CCN6CC[C@]43[C@@H]65)C2)C1` [Vinblastine, reference compound], for which, in the data set on HepG2 cells [2] (setting [10]), the “MNBN cells frequency (%)” value is 11.5% and 12.3%; the “Mean frequency (%) of MNBN cells” value came to 11.9%. In addition, in the data set with HepG2 cells [2] (setting [11]), the “MNBN cells frequency (%)” value was 4.6% and 4.1%; the “Mean frequency (%) of MNBN cells” value was determined as 4.35%. Besides, in the data set “Cytotoxicity evaluation” (setting [12]), the cytotoxicity at 0.0025 μg/mL stood at 27.1%. In addition, the cytotoxicity at 0.025 μg/mL in the data set “Cytotoxicity evaluation” (setting [13]) was 9.29%. In the data set on HepG2 cells [3] (setting [12]), the CBPI was determined as 1.67 and the “Mean CBPI” value stood at 1.67. For the same compound, in the data set on HepG2 cells [3] (setting [13]), the CBPI was 1.97 and 1.92; the “Mean CBPI” value stood at 1.95.

`CCCCC/C=C\C/C=C\CCCCCCCC(=O)OCC1(C)COC1` [NKS-5, (9Z,12Z)-(3-methyloxetan-3-yl)methyl octadeca-9,12-dienoate]: the “Ca2+ signaling compared with a dietary long-chain fatty acid” value in the data set with human fungiform TBC and in the data set on mouse fungiform TBC was “higher” each time. For the same compound, the “increase in intracellular free Ca2+ concentrations, [Ca2+]i” value in the data set on human fungiform TBC (NKS-3 50 μmol/L, NKS-5 25 μmol/L) is on record as “induced an increase”. Moreover, the “CT nerve responses compared with dietary LCFAs (LA, OA)” value in data set [4] is recorded as “higher”. For the same compound, the “release of cholecystokinin (CCK) into blood” value with C57Bl/6 male mice [1] was “more efficient than NKS-3 and LA”. The “release of peptide YY (PYY) into blood” value in the data set with C57Bl/6 male mice [1] is “more potent than NKS-3 and LA”. In the data set on C57Bl/6 male mice [5], the “preference in 2-bottle paradigm versus control solution” value was “significant preference”. The “CD36 (reduced) and GPR120 (high) protein expression in TBC, Western blots” value with C57BL/6J male mice (HFD animals, FTA intake 16 weeks) is “reversed this trend”. Further, the “LA-induced decreases in [Ca2+]i in TBC from obese mice” value in the data set with C57BL/6J male mice (HFD mice given FTA 16 weeks) is given as “reversed”. In the data set on C57BL/6J male mice (HFD-fed mice), the size of hepatocytes result was “decreased”. Also, in the data set with C57BL/6J male mice (HFD-fed mice, 16S rRNA sequencing, week 26), the “fecal microbiota: bacterial family increased” value is “Bacteroidaceae”. In addition, the “adipose tissue mRNA encoding leptin, CD36, TNF-α, and IL6” value with C57BL/6J male mice (HFD-fed mice, epididymal adipose tissue) is recorded as “down-regulated”. In addition, the “crown-like structures of adipocytes” value in the data set with C57BL/6J male mice (obese animals, histology) is recorded as “decreased”. The “circulating TNF-α levels” value in the data set on C57BL/6J male mice (obese mice) is given as “failed to decrease significantly”. Moreover, in the data set on C57BL/6J male mice (obese mice, end of week 26), the “release of GLP-1, CCK-1, and PYY into blood circulation” value is listed as “induced the release”. The “estrogenic or antiestrogenic potential (conclusion)” value in data set [6] is “did not exert an estrogenic or antiestrogenic potential”. Also, the “androgenic or antiandrogenic property (conclusion)” value in data set [7] is listed as “did not possess androgenic or antiandrogenic property”. The weight of kidneys in the data set on female Wistar rats (setting [14]) turned out to be 1.84 ± 0.112 g. In the data set with female Wistar rats (setting [14]), this compound showed a weight of liver of 8.03 ± 0.136 g. In the data set on female Wistar rats (setting [14]), this compound showed a weight of spleen of 0.90 ± 0.062 g. The “toxic effect on liver enzymes and blood lipid parameters” value in the data set with female Wistar rats (rats, single oral limit dose 2000 mg/kg body weight, 2 weeks) is listed as “No toxic effect”. In addition, the “evidence of toxicity, preliminary study” value in the data set with female Wistar rats (single animal, oral dosages of 5000 mg/kg body weight) was “no evidence of toxicity”. The “detection in blood circulation after intravenous injections (LC-MS)” value in data set [8] is reported as “below the level of detection”. Further, the “MNBN cells frequency (%)” value in the data set on HepG2 cells [2] (setting [15]) is 1.1% and 0.8%; in the data set with HepG2 cells [2] (setting [16]) it was 1.1% and 1.3%; in the data set on HepG2 cells [2] (setting [17]), 0.9% and 0.8%; in the data set with HepG2 cells [2] (setting [18]) it was 1.0% and 1.1%; in the data set with HepG2 cells [2] (setting [19]), 0.9%; in the data set with HepG2 cells [2] (setting [20]), 0.9% and 0.8%. The “Mean frequency (%) of MNBN cells” value is given as 0.95% with HepG2 cells [2] (setting [15]); 1.20% in the data set with HepG2 cells [2] (setting [16]); 0.85% in the data set with HepG2 cells [2] (setting [17]); 1.05% with HepG2 cells [2] (setting [18]); 0.90% with HepG2 cells [2] (setting [19]); 0.85% in the data set on HepG2 cells [2] (setting [20]). In addition, the figures for the cytotoxicity at 2.5 mmol/L in “Cytotoxicity evaluation” (setting [21]), in “Cytotoxicity evaluation” (setting [22]) and in the data set “Cytotoxicity evaluation” (setting [23]) were 5.29%, -5.78% and -0.59%, respectively. For the same compound, the cytotoxicity at 5 mmol/L in the data set “Cytotoxicity evaluation” (setting [21]) was 19.6%; in the data set “Cytotoxicity evaluation” (setting [22]), -1.42%; in the data set “Cytotoxicity evaluation” (setting [23]), -6.22%. Further, the results for the cytotoxicity at 10 mmol/L in “Cytotoxicity evaluation” (setting [21]), in the data set “Cytotoxicity evaluation” (setting [22]) and in the data set “Cytotoxicity evaluation” (setting [23]) were 14.7%, 1.32% and 1.64%, respectively. Further, the CBPI in the data set with HepG2 cells [3] (setting [24]) is 2.02 and 1.97; in the data set with HepG2 cells [3] (setting [25]), 1.83 and 1.85; in the data set on HepG2 cells [3] (setting [26]), 1.95 and 1.84; with HepG2 cells [3] (setting [15]), 1.99 and 1.98; in the data set with HepG2 cells [3] (setting [16]), 1.95 and 1.94; in the data set with HepG2 cells [3] (setting [17]), 1.91 and 1.93. For the same compound, the CBPI in the data set with HepG2 cells [3] (setting [18]) was 2.07; in the data set on HepG2 cells [3] (setting [19]), 2.14 and 2.12; with HepG2 cells [3] (setting [20]) it was 2.06 and 2.04. For the same compound, the “Mean CBPI” value is reported as 1.99 in the data set on HepG2 cells [3] (setting [24]); 1.84 in the data set with HepG2 cells [3] (setting [25]); 1.89 with HepG2 cells [3] (setting [26]); 1.98 in the data set on HepG2 cells [3] (setting [15]); 1.94 in the data set on HepG2 cells [3] (setting [16]); 1.92 in the data set on HepG2 cells [3] (setting [17]). Moreover, the “Mean CBPI” value stood at 2.07 with HepG2 cells [3] (setting [18]), 2.13 in the data set on HepG2 cells [3] (setting [19]) and 2.05 with HepG2 cells [3] (setting [20]). For the same compound, the “toxicity in the tester strains” value in data set [9] is “No toxicity”.

On to `O=P1(N(CCCl)CCCl)NCCCO1` (stereo not drawn) [Cyclophosphamide, reference compound], for which the “MNBN cells frequency (%)” value in the data set on HepG2 cells [2] (setting [27]) was 2.3% and 3.1%; in the data set on HepG2 cells [2] (setting [28]), 8.2% and 7.9%. Further, the “Mean frequency (%) of MNBN cells” value in the data set with HepG2 cells [2] (setting [27]) came out at 2.70%; in the data set with HepG2 cells [2] (setting [28]), 8.05%. For the same compound, the cytotoxicity at 5 μg/mL in “Cytotoxicity evaluation” (setting [29]) was determined as 13%. The cytotoxicity at 10 μg/mL in the data set “Cytotoxicity evaluation” (setting [30]) was found to be 5.3%. For the same compound, the CBPI is 1.73 and 1.66 with HepG2 cells [3] (setting [29]); 1.93 and 2.09 in the data set on HepG2 cells [3] (setting [30]). Further, the “Mean CBPI” value was 1.70 in the data set on HepG2 cells [3] (setting [29]) and 2.01 in the data set with HepG2 cells [3] (setting [30]).

Values taken from PMC9871744 (Cellular and Molecular Gastroenterology and Hepatology, 2022).
